The numbers were not newly measured in patent publication US8846744B2, “Pharmaceutical compositions of co-crystals of tramadol and coxibs” (Laboratorios del Dr. Esteve, S.A., priority 2010, dated 2014), which cites them from elsewhere.

Molecules are shown by their SMILES.

Take `Cc1ccc(-c2cc(C(F)(F)F)nn2-c2ccc(S(N)(=O)=O)cc2)cc1` [Celecoxib, 4-[5-(4-methylphenyl)-3-(trifluoromethyl)pyrazol-1-yl]benzenesulfonamide]: the “solubility in water” value is reported as “practically insoluble”.
